Bridge positions count the residues as written; N and C are the ends. Ends that are not written are not given here. Peptide text beside a SMILES is read from it.
What was measured:
PA1b binding site = assay: Ligand binding to the PA1b-binding site using 125I-PA1b; details: for binding to the PA1b-binding site (in words): 125I-PA1b ligand binding; for Ki: affinity to the PA1b binding site, ligand binding using 125I-PA1b, according to [12], '-' = no binding in the range assayed
Procedure: The affinity of synthetic peptides for the PA1b-binding site was determined by ligand binding using ^125I-toxin [12].

Sitophilus = assay type: in vivo; details: standard Sitophilus mortality assay [17]; data not shown
Sf9 cells = assay type: cell-based, Spodoptera frugiperda; details: for LC50: cultured Sf9 cells, 15 000 cells/well, 24 h exposure, 27 °C, CellTiter-Blue, according to Rahioui et al. [32], '-' = no toxicity in the range assayed
Procedure: Sf9 cells lines were grown at 27 °C in Lonza’s culture medium, supplemented with 5 % fetal bovine serum (FBS) and 0.1 % gentamicin. Sf9 cells were seeded, in 96-well plates, 24 h prior to the experiments (15 000 cells/well) and were exposed to increasing concentrations of synthetic peptide. After this 24 h period, cell viability was determined using the CellTiter-Blue Viability Assay (Promega), according to the manufacturer’s instructions. After addition of the dye, the cells were incubated at 27 °C for 4 h. The absorbance, at 570 and 600 nm, was then measured using a microplate reader (MR 7000, Dynatech Laboratories Inc., USA).

[1] = test system: Sf9 cell ramp membrane current; assay: Whole-cell patch-clamp: blockage of Sf9 cell ramp membrane current; assay type: cell-based, Spodoptera frugiperda; details: Sf9 cells; for EC50: whole-cell patch clamp, voltage ramps 1.5 s from −100 to 90 mV, measured at +50 mV, Hill fit with 100 % blockage as fixed maximum, mean ± S.E., n = 9 (AG41), n = 8 (PA1b), SEM, read-out: EC50, inhibition of ramp membrane current
Procedure: We further investigated the AG41’s biological activity by performing an electrophysiological experiment on cultured Sf9 cells to check whether its cell-membrane ion transport alteration differed from that of PA1b, the model pea peptide. […] At 35 nM, AG41 decreased by approximately 35 % the ramp current amplitude measured at +50 mV (from 68 pA to 44 pA), while a similar concentration of 37.5 nM PA1b had no effect (trace from AG41 even differed from control at 3.5 nM).
Current recordings were made at room temperature, under voltage clamp using the whole-cell configuration of the patch-clamp technique. Command voltage and data acquisition were performed with pClamp software (Axon Instruments, Foster city, CA, USA). The holding potential was −80 mV. Membrane currents were evoked, every 10 s, by voltage ramps of 1.5 s in duration applied from −100 to 90 mV, filtered at 300 Hz and sampled at 1 kHz with an analogue-to-digital converter (Labmaster TM 40, Scientific Solutions Inc., Solon OH, USA). The external solution contained (in mM): 135 NaCl, 4 KCl, 2 MgCl2, 10 CaCl2 and 10 Mes, adjusted to pH 6.4 with NaOH. The internal solution contained (in mM): 140 K-aspartate, 1 MgCl2, 3 K2-ATP, 5 EGTA and 5 Hepes, adjusted to pH 7.2 with KOH. Salts were purchased from Sigma-Aldrich and peptides were prepared as 60 % (v/v) ethanol stock solution as previously described.
Biological results are expressed as the mean ± S.E.M., n indicating the number of Sf9 cells studied (electrophysiology). Statistical comparisons were made using a Mann–Whitney U or Wilcoxon tests at the 95 % confidence level.

Row | Molecule | binding to the PA1b-binding site (in words) (PA1b binding site) | Ki (PA1b binding site) [nM] | toxicity in Sitophilus mortality assay (in words) (Sitophilus) | LC50 (Sf9 cells) | effect on ramp membrane current (in words) ([1]; 37.5 nM peptide) | EC50 [1] [nM] | decrease of ramp current amplitude measured at +50 mV ([1]; 35 nM peptide) | ramp current amplitude measured at +50 mV ([1]; 35 nM peptide (control 68 pA)) [pA] | toxicity relative to the original pea albumin 1b (Sf9 cells; compared with PA1b, Table 1)
1 | CC[C@H](C)[C@@H]1NC(=O)CNC(=O)[C@H](CO)NC(=O)[C@@H](NC(=O)[C@H](CC(=O)O)NC(=O)[C@H](C)N)CSSC[C@@H]2NC(=O)[C@H](CC(=O)O)NC(=O)[C@H](CO)NC(=O)[C@H](CO)NC(=O)[C@H](CCCNC(=N)N)NC(=O)[C@@H]3CSSC[C@@H](C(=O)N[C@H](C(=O)N[C@@H](CC(N)=O)C(=O)N4CCC[C@H]4C(=O)N[C@H](C(=O)N[C@@H](CO)C(=O)O)[C@@H](C)CC)[C@@H](C)CC)NC(=O)[C@H](Cc4ccccc4)NC(=O)CNC(=O)CNC(=O)[C@H]([C@@H](C)CC)NC(=O)[C@H](CC(C)C)NC(=O)[C@H](C)NC(=O)[C@H]([C@@H](C)CC)NC(=O)[C@@H]4CCCN4C(=O)[C@H]([C@@H](C)CC)NC(=O)[C@H](CSSC[C@H](NC1=O)C(=O)N[C@@H](CO)C(=O)N1CCC[C@H]1C(=O)N[C@@H](Cc1ccccc1)C(=O)N[C@@H](CCC(=O)O)C(=O)N[C@@H](CCSC)C(=O)N1CCC[C@H]1C(=O)N1CCC[C@H]1C(=O)N3)NC(=O)[C@H](CCCNC(=N)N)NC2=O [AS37] (H-ADCSGICSPFEMPPCRSSDCRCIPIALIGGFCINPIS-OH; disulfide 3-20, 7-22, 15-32 (inferred); N-terminus and C-terminus assumed) | revealed binding properties | 15 ± 2 | toxic | 107 ± 3.2 nM | – | – | – | – | –
2 | CC[C@H](C)[C@@H]1NC(=O)[C@H](Cc2ccccc2)NC(=O)[C@@H]2CSSC[C@@H]3NC(=O)[C@H](C)NC(=O)[C@H](CCC(=O)O)NC(=O)CNC(=O)[C@@H](NC(=O)[C@H](CCCCN)NC(=O)[C@H](C)N)CSSC[C@H](NC(=O)CNC(=O)[C@H](CC(=O)O)NC(=O)CNC(=O)[C@H](C)NC(=O)[C@H](CC(N)=O)NC(=O)[C@H](CSSC[C@@H](C(=O)N[C@@H](C)C(=O)N[C@@H](CCC(N)=O)C(=O)N[C@@H](CC(C)C)C(=O)N[C@@H](CO)C(=O)N[C@H](C(=O)O)[C@@H](C)O)NC(=O)[C@H](Cc4ccccc4)NC(=O)CNC(=O)[C@@H]4CCCN4C(=O)[C@H](CC(C)C)NC(=O)[C@H]([C@@H](C)O)NC(=O)[C@H](CC(C)C)NC(=O)[C@H](Cc4ccc(O)cc4)NC(=O)[C@H](C)NC(=O)[C@H](CC(=O)O)NC(=O)[C@H]([C@@H](C)O)NC1=O)NC(=O)[C@H](Cc1ccccc1)NC(=O)[C@H](CC(N)=O)NC(=O)[C@H](Cc1ccccc1)NC(=O)[C@H](CCC(N)=O)NC(=O)[C@H]([C@@H](C)O)NC(=O)[C@H](CC(=O)O)NC3=O)C(=O)N[C@@H](CCCNC(=N)N)C(=O)N2 [AS40] (H-AKCGEACDTQFNFCNAGDGCRCFITDAYLTLPGFCAQLST-OH; disulfide 3-20, 7-22, 14-35 (inferred); N-terminus and C-terminus assumed) | revealed binding properties | 10.3 ± 2 | – | 47 ± 2.2 nM | – | – | – | – | –
3 | CC[C@H](C)[C@@H]1NC(=O)[C@H](C(C)C)NC(=O)[C@H](CC(C)C)NC(=O)CNC(=O)[C@H](C(C)C)NC(=O)[C@@H]2CCCN2C(=O)[C@H]([C@@H](C)CC)NC(=O)[C@@H]2CSSC[C@@H]3NC(=O)[C@H](C(C)C)NC(=O)CNC(=O)[C@H](CC(N)=O)NC(=O)[C@@H](NC(=O)[C@H](CO)NC(=O)[C@H](C)N)CSSC[C@H](NC(=O)[C@H](C)NC(=O)[C@H](CO)NC(=O)[C@H]([C@@H](C)O)NC(=O)CNC(=O)[C@H](CSSC[C@@H](C(=O)N[C@@H](CCCNC(=N)N)C(=O)N[C@@H](CC(N)=O)C(=O)N4CCC[C@H]4C(=O)N[C@@H](CO)C(=O)NCC(=O)O)NC(=O)[C@H](Cc4ccc(O)cc4)NC(=O)CNC1=O)NC(=O)[C@@H]1CCCN1C(=O)[C@@H]1CCCN1C(=O)[C@H](CCSC)NC(=O)[C@H](CCC(=O)O)NC(=O)[C@H](Cc1ccccc1)NC(=O)[C@@H]1CCCN1C(=O)[C@H](CO)NC3=O)C(=O)N[C@@H](CCCNC(=N)N)C(=O)N2 [PA1b, reference compound] (H-ASCNGVCSPFEMPPCGTSACRCIPVGLVIGYCRNPSG-OH; disulfide 3-20, 7-22, 15-32; N-terminus and C-terminus assumed) | – | 17 ± 1.1 | – | 79.8 ± 3.6 nM | no effect | 415 ± 75.6 | – | – | –
4 | ASCPNVGAVCSPFETKPCGNVKDCRCLPWGLFFGTCINPTG (disulfide 3-24, 10-26, 18-36 (inferred)) [AG41] | revealed binding properties | 1.3 ± 0.6 | highly toxic | 5.44 ± 1.7 nM | – | 14.6 ± 0.4 | approximately 35% | 44 | almost ten times superior
5 | DEC-W-G-PCSVLQTPP-CPLSK CYCIPLFLVVGY---CSHASS (bicyclic or more) [DS37, synthetic folded Medicago truncatula A1b peptide, cluster 1, non-canonical CYC motif] | did not present binding | – | not toxic | - ((−) scores a negative result (no toxicity nor binding in the toxin range assayed)) | – | – | – | – | –
6 | EFCSSVGSFCSPFNTNPCGYLGNCRCVPYYLYGGTCENPFG (disulfide 3-24, 10-26, 18-36 (inferred)) [EG41] | revealed binding properties | 72.8 ± 2.7 | – | 75 ± 3.1 nM | – | – | – | – | –
7 | GQCARVGMRCSRALPNPCGDIVTCRCVHLHLVGSTCIDYTGDGL (disulfide 3-24, 10-26, 18-36) [GL44] | did not present binding | > 694 | – | - ((−) scores a negative result (no toxicity nor binding in the toxin range assayed)) | – | – | – | – | –

Source: publication PMC4785745, “Genome-wide analysis identifies gain and loss/change of function within the small multigenic insecticidal Albumin 1 family of Medicago truncatula” (BMC Plant Biology, 2016)
